The source of these data is patent US20230174575A1 (priority 2020, published 2023).

Read-outs that look alike come from different tables or passages of the source.

The nature of data set [1]: Cell toxicity against Vero cells by MTT assay. Conditions: African green monkey. Background: Tetrazolium assays rely on reduction of a dye to a coloured formazan, in cell work by metabolically active cells.
Method: Cell toxicity was monitored by establishing the effect of lysozyme HCl against Vero cells (epithelial cells of monkey kidneys). The cells were seeded in 96-well plates at the concentration of 1×10^4 cells/well. 24 hours after seeding, the cells were treated with serial dilutions of lysozyme HCl or chloroquine (as control), in a final volume of 200 in triplicate. After 72 hours' incubation at 37° C. with 5% CO2, cell viability was measured by MTT assay (D'Alessandro, M. et al., Differential effects on angiogenesis of two antimalarial compounds, dihydroartemisinin and artemisone: Implications for embryotoxicity, Toxicology. 241 (2007) 66-74. Doi: 10.1016/j.tox.2007.08.084).
The data were calculated as percentage cell viability using the formula:
[(absorbance of sample−blank of cell-free sample)/mean absorbance of control of media]×100.
The cytotoxicity of ovotransferrin and chloroquine (CQ) was measured by MTT assay, similarly to the method used for lysozyme HCl.
For another data set, the system named is Vero cells. Kind of data set: Cell toxicity against Vero cells by MTT assay. The settings on record: MTT assay.
Data set [2] relates to SARS-CoV-2. As to the kind of experiment: Virucidal activity, plaque test. The format is cell-based.
Data set [3] concerns SARS-CoV-2. The format is cell-based. The settings on record: for Percentage replication of SARS-CoV-2 (lysozyme only): no ovotransferrin.
For data set [4], the system named is Micrococcus lysodeikticus cells. As to the kind of experiment: Enzyme activity, enzymatic turbidimetric method (FIP method). In kind it is biochemical. The method, then:
• Flow rate: 1 ml/min Determination of assay value (enzymatic turbidimetric method using Micrococcus lysodeikticus cells): according to the FIP method (Pharmaceutical Enzyme, Ed 1997, 84, 375) and J Pharm Pharmacol. 2001; 53 (4); 549-54.

As to `CCN(CC)CCCC(C)Nc1ccnc2cc(Cl)ccc12` (stereo not drawn) [CQ, chloroquine, reference compound], the 50% cytotoxic concentration (CC50) (in general, the concentration at which the toxic effect on the cells reaches its halfway point) at 72 h in data set [1] turned out to be 95.3 ± 18 µM. In addition, in the data set with Vero cells (unit not given), the CC10 came to 20.93±4.39.

On to “Heat-treated lysozyme: lysozyme HCl heat-treated at 99° C. for 40 minutes”, for which the “mean PFU/ml (average of three experiments)” value with SARS-CoV-2 [2] (0.42 mg/ml) is 58.61 PFU/ml; with SARS-CoV-2 [2] (0.56 mg/ml), 60.41 PFU/ml; with SARS-CoV-2 [2] (1 mg/ml) it was 71.32 PFU/ml. Besides, the “percentage (PFU relative to untreated infected cells)” value is reported as 57.2% in the data set on SARS-CoV-2 [2] (0.42 mg/ml), 58.9% in the data set on SARS-CoV-2 [2] (0.56 mg/ml) and “(69.6%)” with SARS-CoV-2 [2] (1 mg/ml). Also, the “infectivity of SARS-CoV-2 reduced by” value in the data set with SARS-CoV-2 [2] (0.42 mg/ml, plaque assay) turned out to be 57.2%; in the data set with SARS-CoV-2 [2] (0.56 mg/ml, plaque assay), 58.9%; in the data set with SARS-CoV-2 [2] (1 mg/ml, plaque assay) it was 69.6%.

In the case of lysozyme hydrochloride [Lysozyme HCl], the “antiviral activity against SARS-CoV-2 infection in the in vitro test” value in the data set on SARS-CoV-2 [3] was “high antiviral activity”. Besides, the percentage viral replication result in the data set on SARS-CoV-2 [3] is “very low, and close to zero”. The “% viral replication (average of 9 replications)” value (“% viral replication” below) was determined as 83.24% with SARS-CoV-2 [3] (Dry heat treatment (74° C. for 60 min), 0.33 mg/mL); 42.05% in the data set with SARS-CoV-2 [3] (Dry heat treatment (74° C. for 60 min), 0.5 mg/mL); 11.31% in the data set on SARS-CoV-2 [3] (Dry heat treatment (74° C. for 60 min), 0.75 mg/mL); 60.32% with SARS-CoV-2 [3] (Dry heat treatment (99° C. for 40 min), 0.33 mg/mL); 35.56% in the data set on SARS-CoV-2 [3] (Dry heat treatment (99° C. for 40 min), 0.5 mg/mL); 16.58% in the data set with SARS-CoV-2 [3] (Dry heat treatment (99° C. for 40 min), 0.75 mg/mL). Also, the “% viral replication” value is 87.85% with SARS-CoV-2 [3] (Heat treatment in aqueous solution, 90° C. for 3 minutes, 0.33 mg/mL); 67.97% in the data set with SARS-CoV-2 [3] (Heat treatment in aqueous solution, 90° C. for 3 minutes, 0.5 mg/mL); 15.55% with SARS-CoV-2 [3] (Heat treatment in aqueous solution, 90° C. for 3 minutes, 0.75 mg/mL); 87.96% with SARS-CoV-2 [3] (Heat treatment in aqueous solution, 90° C. for 6 minutes, 0.33 mg/mL); 51.62% with SARS-CoV-2 [3] (Heat treatment in aqueous solution, 90° C. for 6 minutes, 0.5 mg/mL); 9.88% with SARS-CoV-2 [3] (Heat treatment in aqueous solution, 90° C. for 6 minutes, 0.75 mg/mL). Also, the “% viral replication” value is 78.00% in the data set on SARS-CoV-2 [3] (Heat treatment in aqueous solution, 90° C. for 20 minutes, 0.33 mg/mL); 36.10% with SARS-CoV-2 [3] (Heat treatment in aqueous solution, 90° C. for 20 minutes, 0.5 mg/mL); 18.30% in the data set with SARS-CoV-2 [3] (Heat treatment in aqueous solution, 90° C. for 20 minutes, 0.75 mg/mL); 42.06% in the data set on SARS-CoV-2 [3] (Heat treatment in aqueous solution, 90° C. for 25 minutes, 0.33 mg/mL); 24.61% in the data set on SARS-CoV-2 [3] (Heat treatment in aqueous solution, 90° C. for 25 minutes, 0.5 mg/mL); 2.62% in the data set on SARS-CoV-2 [3] (Heat treatment in aqueous solution, 90° C. for 25 minutes, 0.75 mg/mL). The “% viral replication” value was 79.72% in the data set with SARS-CoV-2 [3] (No heat treatment, 0.33 mg/mL); 58.13% in the data set on SARS-CoV-2 [3] (No heat treatment, 0.5 mg/mL); 25.51% in the data set on SARS-CoV-2 [3] (No heat treatment, 0.75 mg/mL). The “Percentage replication of SARS-CoV-2 (lysozyme only)” value is recorded as 93% in the data set on SARS-CoV-2 [3] (lysozyme HCl 0.32 mg/ml), 89% in the data set with SARS-CoV-2 [3] (lysozyme HCl 0.42 mg/ml), 93% with SARS-CoV-2 [3] (lysozyme HCl 0.56 mg/ml) and 62% in the data set with SARS-CoV-2 [3] (lysozyme HCl 0.75 mg/ml). Besides, in the data set on SARS-CoV-2 [3] (lysozyme HCl 0.75 mg/ml, in the absence of ovotransferrin), the “viral replication inhibited by” value is given as “about 62%”. Further, the “mean PFU/ml (average of three experiments)” value came out at 70 PFU/ml with SARS-CoV-2 [2] (0.42 mg/ml), 61.65 PFU/ml in the data set with SARS-CoV-2 [2] (0.56 mg/ml) and 75 PFU/ml in the data set on SARS-CoV-2 [2] (1 mg/ml). Further, the “percentage (PFU relative to untreated infected cells)” value in the data set with SARS-CoV-2 [2] (0.42 mg/ml) is recorded as 83.9%; in the data set with SARS-CoV-2 [2] (0.56 mg/ml), 84.1%; in the data set on SARS-CoV-2 [2] (1 mg/ml), “(<100%)”. The “reduction of infectivity of SARS-CoV-2” value in the data set with SARS-CoV-2 [2] (any of the doses used (0.42, 0.56, 1 mg/ml), plaque assay) was “did not reduce the infectivity”. Further, the “Enzyme activity (turbidimetric method)” value amounted to 98.7 in data set [4] (No heat treatment); 98.8 in data set [4] (after dry heat treatment (74° C. for 60 min)); 98.1 in data set [4] (after dry heat treatment (99° C. for 40 min)); 97.3 in data set [4] (after heat treatment in aqueous solution, 90° C. for 3 minutes); 97.4 in data set [4] (after heat treatment in aqueous solution, 90° C. for 6 minutes); 92.1 in data set [4] (after heat treatment in aqueous solution, 90° C. for 20 minutes). Further, the “Enzyme activity (turbidimetric method)” value in data set [4] (after heat treatment in aqueous solution, 90° C. for 25 minutes) was determined as 88.8. In the data set with Vero cells (72 hours), the “CC50 for Vero cells” value was found to be 13.3 mg/mL.
